What was measured:
Format in all cases: biochemical
[1] = biological target: T1, ErbB2 (Homo sapiens, UniProt P04626); test: Kinase inhibition assay (33P transfer), ErbB2; settings: read-out: ErbB2-2
T1 construct: Kinases are expressed as either kinase domains or full length constructs; made in house
Text: The inhibitor compounds described herein are screened in the following manner. Kinases suitable for use in the following protocol to determine kinase activity of the compounds described herein include, -but are not limited to: Lck, Lyn, Src, Fyn, Syk, Zap-70, Itk, Tec, Btk, EGFR, ErbB2, Kdr, Flt-1, Flt-3, Tek, c-Met, InsR, and AKT.
Kinases are expressed as either kinase domains or full length constructs fused to glutathione S-transferase (GST) or polyHistidine tagged fusion proteins in either E. colior Baculovirus-High Five expression systems. They are purified to near homogeneity by affinity chromatography essentially as previously described (Lehr et al., 1996; Gish et al., 1995). In some instances, kinases are co-expressed or mixed with purified or partially purified regulatory polypeptides prior to measurement of activity.
Kinase activity and inhibition are measured essentially by established protocols (Braunwalder et al., 1996). Briefly, The transfer of ^33PO4 from ATP to the synthetic substrates poly(Glu, Tyr) 4:1 or poly(Arg, Ser) 3:1 attached to the bioactive surface of microtiter plates serves as the basis to evaluate enzyme activity. After an incubation period, the amount of phosphate transferred is measured by first washing the plate with 0.5% phosphoric acid, adding liquid scintillant, and then counting in a liquid scintillation detector. The IC50 is determined by the concentration of compound that causes a 50% reduction in the amount of […] incorporated onto the substrate bound to the plate.

[2] = biological target: T2, PDGFRB (Homo sapiens, UniProt P09619); test: Kinase inhibition assay (33P transfer), PDGFRB; settings: read-out: PDGFRB-1
T2 construct: Kinases are expressed as either kinase domains or full length constructs; made in house

[3] = biological target: T3, Kdr (Homo sapiens, UniProt P35968); test: Kinase inhibition assay (33P transfer), Kdr; settings: read-out: KDR-1
T3 construct: Kinases are expressed as either kinase domains or full length constructs; made in house
Outline: (§1)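 Radiometric readout: 33P incorporated into surface-bound poly(Glu,Tyr) 4:1 or poly(Arg,Ser) 3:1 is counted by liquid scintillation after a 0.5% phosphoric acid wash. Enzymes were GST or polyHis fusions (kinase domain or full length) from E. coli or High Five insect cells.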

[4] = biological target: T4, IGFR-1 (Homo sapiens, UniProt P08069); test: Kinase inhibition assay, IGFR-1 (Table 2); settings: Table 2, kinase inhibition class
T4 construct: Kinases are expressed as either kinase domains or full length constructs; made in house

[5] = biological target: T5, c-Met (Homo sapiens, UniProt P08581); test: Kinase inhibition assay (33P transfer), c-Met; settings: Table 2, kinase inhibition class; read-out: Met-1
T5 construct: Kinases are expressed as either kinase domains or full length constructs; made in house
Outline: (§2)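 Recombinant kinase domains or full-length GST- or His-tagged constructs, from E. coli or baculovirus/High Five cells, sometimes with regulatory polypeptides. Transfer of 33P from ATP to plate-bound poly(Glu,Tyr) 4:1 or poly(Arg,Ser) 3:1 counted by liquid scintillation after phosphoric acid wash; IC50 is the concentration halving incorporation.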

[6] = biological target: T6, Lck (Homo sapiens, UniProt P06239); test: Kinase inhibition assay (33P transfer), Lck; settings: read-out: Lck-1
T6 construct: Kinases are expressed as either kinase domains or full length constructs; made in house
Outline: as §1

[7] = biological target: T7, Zap-70 (Homo sapiens, UniProt P43403); test: Kinase inhibition assay (33P transfer), Zap-70; settings: read-out: Zap-1
T7 construct: Kinases are expressed as either kinase domains or full length constructs; made in house
T7 sequence (P43403 1-619): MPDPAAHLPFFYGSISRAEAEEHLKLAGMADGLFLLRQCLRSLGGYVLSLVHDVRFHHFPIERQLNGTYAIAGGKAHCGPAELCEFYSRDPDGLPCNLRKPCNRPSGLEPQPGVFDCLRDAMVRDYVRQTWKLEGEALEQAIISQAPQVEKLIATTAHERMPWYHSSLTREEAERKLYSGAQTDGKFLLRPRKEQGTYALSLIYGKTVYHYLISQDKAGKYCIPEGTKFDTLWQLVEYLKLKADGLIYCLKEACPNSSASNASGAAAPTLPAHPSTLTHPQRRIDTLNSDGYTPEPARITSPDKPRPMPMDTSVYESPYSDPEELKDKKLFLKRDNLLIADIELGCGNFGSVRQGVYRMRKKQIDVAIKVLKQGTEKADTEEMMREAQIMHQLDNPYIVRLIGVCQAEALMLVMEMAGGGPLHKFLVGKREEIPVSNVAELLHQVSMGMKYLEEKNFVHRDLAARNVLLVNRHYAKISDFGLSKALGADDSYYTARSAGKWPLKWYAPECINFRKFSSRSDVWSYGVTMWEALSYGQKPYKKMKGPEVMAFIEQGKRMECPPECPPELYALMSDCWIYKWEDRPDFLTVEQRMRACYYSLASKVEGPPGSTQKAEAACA
Outline: as §1

[8] = biological target: T8, EGFR (Homo sapiens, UniProt P00533); test: Kinase inhibition assay (33P transfer), EGFR; settings: Table 2, kinase inhibition class; read-out: EGFR-1
T8 construct: Kinases are expressed as either kinase domains or full length constructs; made in house
Outline: as §2

[9] = biological target: T9, Itk (Homo sapiens, UniProt Q08881); test: Kinase inhibition assay (33P transfer), Itk; settings: read-out: Itk-1
T9 construct: Kinases are expressed as either kinase domains or full length constructs; made in house
T9 sequence (Q08881 1-620): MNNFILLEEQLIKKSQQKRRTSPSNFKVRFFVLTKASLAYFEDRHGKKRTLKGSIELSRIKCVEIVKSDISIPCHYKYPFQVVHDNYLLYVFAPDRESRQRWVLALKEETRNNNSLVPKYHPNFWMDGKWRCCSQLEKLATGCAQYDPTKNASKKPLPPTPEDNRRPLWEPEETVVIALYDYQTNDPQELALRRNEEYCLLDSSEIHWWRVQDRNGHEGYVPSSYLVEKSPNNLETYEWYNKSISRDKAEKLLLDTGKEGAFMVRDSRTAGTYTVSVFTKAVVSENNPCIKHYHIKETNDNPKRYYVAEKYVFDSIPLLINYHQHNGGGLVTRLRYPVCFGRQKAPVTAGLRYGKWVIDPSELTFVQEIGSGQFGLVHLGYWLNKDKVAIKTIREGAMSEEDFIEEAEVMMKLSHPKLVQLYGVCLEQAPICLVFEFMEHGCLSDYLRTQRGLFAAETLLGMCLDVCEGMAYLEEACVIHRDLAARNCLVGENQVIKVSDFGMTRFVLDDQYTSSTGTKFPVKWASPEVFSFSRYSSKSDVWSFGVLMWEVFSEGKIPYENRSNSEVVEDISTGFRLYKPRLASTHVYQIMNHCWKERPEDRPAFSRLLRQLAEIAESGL
Outline: as §2

[10] = biological target: T10, AKT (Homo sapiens, UniProt Q9Y243); test: Kinase inhibition assay (33P transfer), AKT; settings: Table 2, kinase inhibition class; read-out: AKT3-1
T10 construct: Kinases are expressed as either kinase domains or full length constructs; made in house
Outline: as §1

[11] = biological target: T11, Tek (Homo sapiens, UniProt Q02763); test: Kinase inhibition assay (33P transfer), Tek; settings: read-out: Tek-1
T11 construct: Kinases are expressed as either kinase domains or full length constructs; made in house
Outline: as §2

T6 sequence (P06239 whole entry, species assumed, the tested form may be a part): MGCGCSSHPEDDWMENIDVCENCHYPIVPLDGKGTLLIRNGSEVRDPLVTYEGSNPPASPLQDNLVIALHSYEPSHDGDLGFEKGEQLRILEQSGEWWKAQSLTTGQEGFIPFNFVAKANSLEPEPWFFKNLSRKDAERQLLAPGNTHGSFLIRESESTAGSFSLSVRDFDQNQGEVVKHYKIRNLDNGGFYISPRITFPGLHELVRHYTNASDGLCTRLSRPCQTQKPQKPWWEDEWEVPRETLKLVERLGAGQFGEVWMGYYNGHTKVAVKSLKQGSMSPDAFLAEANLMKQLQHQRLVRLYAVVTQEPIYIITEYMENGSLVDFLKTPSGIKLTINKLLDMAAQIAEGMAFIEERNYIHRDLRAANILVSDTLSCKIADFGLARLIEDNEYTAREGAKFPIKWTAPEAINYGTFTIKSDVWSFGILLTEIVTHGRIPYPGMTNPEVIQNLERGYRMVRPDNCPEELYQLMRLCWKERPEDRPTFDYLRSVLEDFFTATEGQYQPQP
T10 sequence (Q9Y243 whole entry, the tested form may be a part): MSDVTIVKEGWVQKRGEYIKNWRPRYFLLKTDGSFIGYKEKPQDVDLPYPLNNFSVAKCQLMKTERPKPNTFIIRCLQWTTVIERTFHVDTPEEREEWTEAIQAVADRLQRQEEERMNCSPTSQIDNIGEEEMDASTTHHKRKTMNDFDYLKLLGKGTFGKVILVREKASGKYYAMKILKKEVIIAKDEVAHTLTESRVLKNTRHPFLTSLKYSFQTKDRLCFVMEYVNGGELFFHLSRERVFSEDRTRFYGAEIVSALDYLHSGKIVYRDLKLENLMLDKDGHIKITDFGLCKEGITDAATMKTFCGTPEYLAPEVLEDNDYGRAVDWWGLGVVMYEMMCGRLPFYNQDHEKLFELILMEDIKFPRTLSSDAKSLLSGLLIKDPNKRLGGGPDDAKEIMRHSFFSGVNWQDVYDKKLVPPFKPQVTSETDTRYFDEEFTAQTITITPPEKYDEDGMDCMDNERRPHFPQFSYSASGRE
T1 sequence (P04626 23-1255, species assumed): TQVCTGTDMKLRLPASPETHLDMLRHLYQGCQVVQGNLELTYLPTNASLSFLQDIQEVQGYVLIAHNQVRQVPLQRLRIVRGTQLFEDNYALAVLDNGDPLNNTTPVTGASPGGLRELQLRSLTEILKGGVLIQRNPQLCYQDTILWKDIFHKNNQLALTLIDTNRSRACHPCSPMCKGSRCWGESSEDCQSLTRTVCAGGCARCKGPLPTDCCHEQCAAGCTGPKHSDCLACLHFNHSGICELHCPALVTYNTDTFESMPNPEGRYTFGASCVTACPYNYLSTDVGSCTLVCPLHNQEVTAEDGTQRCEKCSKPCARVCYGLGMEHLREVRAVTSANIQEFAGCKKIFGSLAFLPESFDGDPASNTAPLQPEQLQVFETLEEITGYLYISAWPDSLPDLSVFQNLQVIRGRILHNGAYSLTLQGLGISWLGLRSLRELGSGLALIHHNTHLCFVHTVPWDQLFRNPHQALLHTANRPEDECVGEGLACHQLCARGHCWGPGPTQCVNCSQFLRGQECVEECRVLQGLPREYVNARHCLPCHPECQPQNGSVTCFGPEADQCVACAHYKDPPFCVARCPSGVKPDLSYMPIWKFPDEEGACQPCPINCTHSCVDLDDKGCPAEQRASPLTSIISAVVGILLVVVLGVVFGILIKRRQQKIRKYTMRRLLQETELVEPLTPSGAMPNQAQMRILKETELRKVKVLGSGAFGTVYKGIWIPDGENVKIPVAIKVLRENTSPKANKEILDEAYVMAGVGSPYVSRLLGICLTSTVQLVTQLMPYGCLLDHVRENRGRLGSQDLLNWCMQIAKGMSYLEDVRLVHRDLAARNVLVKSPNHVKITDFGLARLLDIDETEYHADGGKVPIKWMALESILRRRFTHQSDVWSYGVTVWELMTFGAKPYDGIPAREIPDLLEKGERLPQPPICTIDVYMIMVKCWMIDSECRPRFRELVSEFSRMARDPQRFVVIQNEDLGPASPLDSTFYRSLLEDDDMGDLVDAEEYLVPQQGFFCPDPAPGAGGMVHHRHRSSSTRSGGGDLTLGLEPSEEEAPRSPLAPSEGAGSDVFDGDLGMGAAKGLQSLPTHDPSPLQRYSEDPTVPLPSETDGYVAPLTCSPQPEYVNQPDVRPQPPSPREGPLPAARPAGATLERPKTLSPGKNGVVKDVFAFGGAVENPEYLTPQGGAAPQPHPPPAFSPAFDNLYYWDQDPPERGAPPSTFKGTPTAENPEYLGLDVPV
T11 sequence (Q02763 23-1124, species assumed): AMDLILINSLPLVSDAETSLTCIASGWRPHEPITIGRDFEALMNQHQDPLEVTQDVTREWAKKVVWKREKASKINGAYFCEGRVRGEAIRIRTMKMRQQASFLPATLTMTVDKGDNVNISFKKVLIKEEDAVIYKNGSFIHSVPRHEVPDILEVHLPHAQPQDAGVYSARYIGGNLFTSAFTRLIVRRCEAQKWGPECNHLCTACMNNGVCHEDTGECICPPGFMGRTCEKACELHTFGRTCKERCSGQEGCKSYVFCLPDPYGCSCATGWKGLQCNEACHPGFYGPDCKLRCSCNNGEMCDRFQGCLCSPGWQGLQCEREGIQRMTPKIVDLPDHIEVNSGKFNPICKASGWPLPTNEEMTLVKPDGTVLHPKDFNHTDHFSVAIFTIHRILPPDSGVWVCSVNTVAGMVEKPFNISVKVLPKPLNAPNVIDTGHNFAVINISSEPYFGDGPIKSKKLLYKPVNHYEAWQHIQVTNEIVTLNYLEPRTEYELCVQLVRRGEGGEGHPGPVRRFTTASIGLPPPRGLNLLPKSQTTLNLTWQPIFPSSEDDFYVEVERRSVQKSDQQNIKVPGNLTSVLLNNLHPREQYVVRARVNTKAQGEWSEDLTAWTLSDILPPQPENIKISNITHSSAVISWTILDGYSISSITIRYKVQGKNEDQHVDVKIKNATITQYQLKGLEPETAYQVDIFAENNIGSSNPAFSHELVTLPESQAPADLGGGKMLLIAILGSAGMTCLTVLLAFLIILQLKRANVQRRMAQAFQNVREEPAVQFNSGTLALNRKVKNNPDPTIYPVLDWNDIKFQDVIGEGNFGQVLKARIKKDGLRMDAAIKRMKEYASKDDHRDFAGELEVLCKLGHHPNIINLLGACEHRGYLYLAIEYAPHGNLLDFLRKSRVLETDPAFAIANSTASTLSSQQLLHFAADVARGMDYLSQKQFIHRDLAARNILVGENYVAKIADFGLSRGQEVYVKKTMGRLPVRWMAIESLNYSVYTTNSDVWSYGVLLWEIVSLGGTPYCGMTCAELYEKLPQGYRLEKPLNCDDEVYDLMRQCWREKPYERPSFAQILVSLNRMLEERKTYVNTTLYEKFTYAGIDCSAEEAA
T3 sequence (P35968 20-1356, species assumed): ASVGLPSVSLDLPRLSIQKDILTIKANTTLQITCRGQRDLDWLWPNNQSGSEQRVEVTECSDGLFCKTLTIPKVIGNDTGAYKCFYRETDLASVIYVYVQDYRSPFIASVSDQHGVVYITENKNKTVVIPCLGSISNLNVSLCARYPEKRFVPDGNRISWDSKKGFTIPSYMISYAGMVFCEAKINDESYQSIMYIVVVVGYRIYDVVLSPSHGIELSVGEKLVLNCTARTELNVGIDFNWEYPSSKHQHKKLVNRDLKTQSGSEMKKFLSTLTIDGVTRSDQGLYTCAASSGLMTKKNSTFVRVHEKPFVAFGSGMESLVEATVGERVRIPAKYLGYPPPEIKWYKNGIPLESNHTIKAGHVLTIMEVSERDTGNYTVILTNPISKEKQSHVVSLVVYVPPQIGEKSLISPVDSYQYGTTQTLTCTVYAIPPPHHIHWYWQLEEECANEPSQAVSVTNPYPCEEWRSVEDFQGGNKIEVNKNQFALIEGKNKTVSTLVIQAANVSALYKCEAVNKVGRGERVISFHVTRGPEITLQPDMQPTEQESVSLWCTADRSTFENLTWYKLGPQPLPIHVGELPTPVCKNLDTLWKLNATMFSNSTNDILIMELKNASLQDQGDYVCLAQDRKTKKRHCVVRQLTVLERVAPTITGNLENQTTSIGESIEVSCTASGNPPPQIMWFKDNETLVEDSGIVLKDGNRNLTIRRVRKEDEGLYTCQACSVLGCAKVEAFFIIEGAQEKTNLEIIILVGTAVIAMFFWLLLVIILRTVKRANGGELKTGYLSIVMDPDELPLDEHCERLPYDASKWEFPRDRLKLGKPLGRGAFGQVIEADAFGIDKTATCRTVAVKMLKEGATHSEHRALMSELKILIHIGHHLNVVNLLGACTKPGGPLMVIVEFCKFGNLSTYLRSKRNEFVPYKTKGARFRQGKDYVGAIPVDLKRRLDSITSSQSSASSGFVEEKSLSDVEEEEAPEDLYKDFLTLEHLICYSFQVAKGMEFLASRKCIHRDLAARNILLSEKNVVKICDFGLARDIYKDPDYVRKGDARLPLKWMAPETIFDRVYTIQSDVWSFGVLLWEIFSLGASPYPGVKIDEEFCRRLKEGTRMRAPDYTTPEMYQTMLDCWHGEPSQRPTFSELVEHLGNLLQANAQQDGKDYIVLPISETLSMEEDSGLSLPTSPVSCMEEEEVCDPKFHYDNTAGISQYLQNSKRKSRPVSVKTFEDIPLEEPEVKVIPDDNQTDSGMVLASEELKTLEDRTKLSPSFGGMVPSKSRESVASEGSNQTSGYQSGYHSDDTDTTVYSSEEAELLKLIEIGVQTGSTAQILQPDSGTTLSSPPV

Row | IC50 [1] [µM] | IC50 [2] [µM] | IC50 [3] [µM] | IC50 [4] [µM] | IC50 [5] [µM] | IC50 [6] [µM] | IC50 [7] [µM] | IC50 [8] [µM] | IC50 [9] [µM] | IC50 [10] [µM] | IC50 [11] [µM] | SMILES
1 | 1.11 to 6.66 | 1.11 to 6.66 | < 1.11 | < 1.11 | 1.11 to 6.66 | 1.11 to 6.66 | > 12.5 | > 12.5 | 1.11 to 6.66 | > 12.5 | – | NC(=O)Cc1cccc(Nc2ncnc(-n3c(N)nc4ccccc43)n2)c1 [Compound 955]
2 | 1.09 to 6.53 | 1.09 to 6.53 | 1.09 to 6.53 | 1.09 to 6.53 | 1.09 to 6.53 | 1.09 to 6.53 | 1.09 to 6.53 | < 1.09 | 1.09 to 6.53 | > 12.2 | – | CN(c1cccc(Cl)c1)c1ncnc(Nc2cc(-c3ccco3)[nH]n2)n1 [Compound 753]
3 | 4.92 to 7.18 | – | 0.821 to 4.92 | 0.821 to 4.92 | 4.92 to 7.18 | 0.821 to 4.92 | > 9.23 | 4.92 to 7.18 | > 9.23 | 7.18 to 9.23 | > 9.23 | COc1cc(Nc2ncnc(Nc3cc(-c4cccc(C(F)(F)F)c4)n[nH]3)n2)cc(OC)c1OC [Compound 1000]
4 | – | 5.78 to 8.42 | > 10.8 | 0.963 to 5.78 | > 10.8 | 0.963 to 5.78 | > 10.8 | > 10.8 | > 10.8 | > 10.8 | – | COc1ccc(Nc2ncnc(Nc3cccc(-c4ccnc(C)n4)c3)n2)cc1OC [Compound 789]
5 | 0.923 to 5.54 | – | 0.923 to 5.54 | < 0.923 | < 0.923 | < 0.923 | > 10.4 | 0.923 to 5.54 | 0.923 to 5.54 | > 10.4 | > 10.4 | COc1cc(Nc2ncnc(Nc3cc(-c4cccc(C)c4)n[nH]3)n2)cc(OC)c1OC [Compound 1001]

Second part, the compound before the results:

Row | SMILES | IC50 [1] [µM] | IC50 [2] [µM] | IC50 [3] [µM] | IC50 [4] [µM] | IC50 [5] [µM] | IC50 [6] [µM] | IC50 [7] [µM] | IC50 [8] [µM] | IC50 [9] [µM] | IC50 [10] [µM] | IC50 [11] [µM]
6 | COc1cc(Nc2ncnc(Nc3cc(-c4ccc(Cl)c(Cl)c4)n[nH]3)n2)cc(OC)c1OC [Compound 589] | 4.91 to 7.17 | > 9.21 | 0.819 to 4.91 | < 0.819 | 7.17 to 9.21 | 0.819 to 4.91 | > 9.21 | 4.91 to 7.17 | 4.91 to 7.17 | > 9.21 | –
7 | COC(=O)c1cc(OC)c(OC)cc1Nc1ncnc(-n2c(N)nc3ccccc32)n1 [Compound 476] | 5.7 to 8.31 | – | 8.31 to 10.7 | 0.949 to 5.7 | > 10.7 | > 10.7 | > 10.7 | > 10.7 | > 10.7 | > 10.7 | > 10.7
8 | COc1cc(Nc2ncnc(Nc3cc(-c4ccc(C)cc4)n[nH]3)n2)cc(OC)c1OC [Compound 521] | 0.923 to 5.54 | – | < 0.923 | < 0.923 | < 0.923 | < 0.923 | > 10.4 | 0.923 to 5.54 | 0.923 to 5.54 | > 10.4 | > 10.4
9 | NC(=O)c1ccccc1Nc1ncnc(-n2c(N)nc3ccccc32)n1 [Compound 473] | 10.1 to 13 | – | 10.1 to 13 | 6.93 to 10.1 | 10.1 to 13 | 6.93 to 10.1 | 10.1 to 13 | > 13 | > 13 | > 13 | > 13

Reference: US7074789B2, “Kinase inhibitors” (Amgen Inc., priority 1999, dated 2006)
